Values joined by “and” are separate entries in the source; they are usually repeats but may differ in a detail not shown here. Identical values can stand only once. Like-named read-outs stand apart in the source and are kept apart here.
Assay: Preliminary pharmacokinetics in SD rats
Format: in vivo
Design: AUC (0-t), individual rats No1-No3 / AUC (0-∞), individual rats No1-No3: concentration or dose not given beside the values
Procedure: We administered BH by gavage and intravenous administration to SD rats (male, 200–220 g, n = 6) after they had fasted for 12 h. For oral gavage, the BH was dissolved in DMSO/0.5% CMC-Na (5/95, v/v/), and for intravenous administration, it was dissolved in DMSO/0.9% NaCl (5/95, v/v/), and then the blood samples were collected at intervals to determine the pharmacokinetic (PK) profiles of SD rats.

## CC1=CC(=O)[C@@H](O)[C@]2(C)[C@H]3[C@@H](O)[C@H](O)[C@@]4(CO)OC[C@@]35[C@@H](C[C@@H]12)OC(=O)[C@H](O)[C@]54O [BH, Bruceine H]
male, SD, rat, plasma, po, 10 mg/kg, p.o. 10 mg/kg, 6 h, read-out: Concentration of BH in rat plasma, individual rats No1-No3
  concentration at 6 h: 97.6 ng/mL
male, SD, rat, plasma, po, 10 mg/kg, p.o. 10 mg/kg, 8 h, read-out: Concentration of BH in rat plasma, Mean
  concentration at 8 h: 42.3 ng/mL
male, SD, rat, plasma, po, 10 mg/kg, p.o. 10 mg/kg, 8 h, read-out: Concentration of BH in rat plasma, individual rats No1-No3
  concentration at 8 h: 50.4 ng/mL
male, SD, rat, plasma, po, 10 mg/kg, p.o. 10 mg/kg, 12 h, read-out: Concentration of BH in rat plasma, Mean
  concentration at 12 h: 16.4 ng/mL
male, SD, rat, plasma, po, 10 mg/kg, p.o. 10 mg/kg, 24 h, read-out: Concentration of BH in rat plasma, Mean
  concentration at 24 h: 3.33 ng/mL
male, SD, rat, plasma, po, 10 mg/kg, rat, p.o., read-out: AUC (0-t), Mean
  AUC(0-t): 961 ng·h/mL
male, SD, rat, plasma, po, 10 mg/kg, rat, p.o., read-out: AUC (0-t), individual rats No1-No3
  AUC(0-t): 1070 ng·h/mL
male, SD, rat, plasma, po, 10 mg/kg, rat, p.o., read-out: AUC (0-∞), Mean
  AUC(0-inf): 976 ng·h/mL
male, SD, rat, plasma, po, 10 mg/kg, rat, p.o., read-out: C_last, Mean
  concentration at 24 h: 2 ng/mL
male, SD, rat, plasma, po, 10 mg/kg, rat, p.o., read-out: Cmax, Mean
  Cmax: 147 ng/mL
male, SD, rat, plasma, po, 10 mg/kg, rat, p.o., read-out: Cmax, individual rats No2, No3
  Cmax: 145 ng/mL
male, SD, rat, plasma, po, 10 mg/kg, rat, p.o., read-out: MRT (0-∞), Mean
  MRT inf: 5.92 h
male, SD, rat, plasma, po, 10 mg/kg, rat, p.o., read-out: MRT (0-∞), individual rats No1-No3
  MRT inf: 5.5 h
male, SD, rat, plasma, po, 10 mg/kg, rat, p.o., read-out: t1/2z, Mean (converted)
  half-life: 201 min
male, SD, rat, plasma, po, 10 mg/kg, rat, p.o., read-out: λz, Mean (converted)
  k el: 6.89e-05 s⁻¹
male, Sprague-Dawley (SD), rat, plasma, iv, 2 mg/kg, rat, i.v., read-out: AUC (0-∞), Mean
  AUC(0-inf): 1050 ng·h/mL
male, Sprague-Dawley (SD), rat, plasma, iv, 2 mg/kg, rat, i.v., read-out: MRT (0-t), Mean
  MRT last: 5.01 h
male, Sprague-Dawley (SD), rat, plasma, iv, 2 mg/kg, rat, i.v., read-out: MRT (0-t), individual rats No1-No3
  MRT last: 4.99 h
male, Sprague-Dawley (SD), rat, plasma, po, 10 mg/kg, rat, p.o., read-out: AUC (0-∞), individual rats No1-No3
  AUC(0-inf): 1070 ng·h/mL
male, Sprague-Dawley (SD), rat, plasma, po, 10 mg/kg, rat, p.o., read-out: MRT (0-t), Mean
  MRT last: 5.54 h
male, Sprague-Dawley (SD), rat, plasma, po, 10 mg/kg, rat, p.o., read-out: MRT (0-t), individual rats No1-No3
  MRT last: 5.47 h
male, rat, plasma, SD rats, 10 mg/kg po vs 2 mg/kg iv, read-out: Oral bioavailability (F)
  bioavailability: 20.4%
male, rat, plasma, SD rats, 10 mg/kg po, read-out: Time of maximum concentration (T max)
  Tmax: 1 h
p.o. 10 mg/kg, 0.25 h, 10 mg/kg
  Concentration of BH in rat plasma, individual rats No1-No3: 10.5 ng/mL and 11.3 ng/mL
p.o. 10 mg/kg, 0.5 h, 10 mg/kg
  Concentration of BH in rat plasma, individual rats No1-No3: 55.4 ng/mL and 50.6 ng/mL
p.o. 10 mg/kg, 0.75 h, 10 mg/kg
  Concentration of BH in rat plasma, individual rats No1-No3: 98.5 ng/mL and 104.2 ng/mL
p.o. 10 mg/kg, 1 h, 10 mg/kg
  Concentration of BH in rat plasma, individual rats No1-No3: 145.3 ng/mL and 140.1 ng/mL
p.o. 10 mg/kg, 2 h, 10 mg/kg
  Concentration of BH in rat plasma, individual rats No1-No3: 117.7 ng/mL and 120.4 ng/mL
p.o. 10 mg/kg, 4 h, 10 mg/kg
  Concentration of BH in rat plasma, individual rats No1-No3: 99.4 ng/mL and 89.6 ng/mL
p.o. 10 mg/kg, 6 h, 10 mg/kg
  Concentration of BH in rat plasma, individual rats No1-No3: 75.3 ng/mL and 68.5 ng/mL
p.o. 10 mg/kg, 8 h, 10 mg/kg
  Concentration of BH in rat plasma, individual rats No1-No3: 35.4 ng/mL and 41.2 ng/mL
p.o. 10 mg/kg, 12 h, 10 mg/kg
  Concentration of BH in rat plasma, individual rats No1-No3: 16.8 ng/mL and 10.4 ng/mL and 22.1 ng/mL
p.o. 10 mg/kg, 24 h, 10 mg/kg
  Concentration of BH in rat plasma, individual rats No1-No3: 2.8 ng/mL and 1.8 ng/mL and 5.4 ng/mL
rat, i.v.
  AUC (0-t), individual rats No1-No3: 883.761 ng·h/mL and 981.633 ng·h/mL
  AUC (0-∞), individual rats No1-No3: 977.839 ng·h/mL and 1158.837 ng·h/mL
  AUMC (0-t), Mean: 4747.166 h*h*ng/mL
  AUMC (0-t), individual rats No1-No3: 4816.632 h*h*ng/mL and 3928.001 h*h*ng/mL and 5496.865 h*h*ng/mL
  AUMC (0-∞), Mean: 9005.111 h*h*ng/mL
  AUMC (0-∞), individual rats No1-No3: 6587.862 h*h*ng/mL and 7623.703 h*h*ng/mL and 12803.767 h*h*ng/mL
  C0, Mean: 516.231 ng/mL
  C0, individual rats No1-No3: 543.621 ng/mL and 515.672 ng/mL and 489.401 ng/mL
  CLz, individual rats No1-No3: 2045.327 mL/h/kg and 1725.868 mL/h/kg
  C_last, individual rats No1-No3: 6.155 ng/mL and 10.282 ng/mL
  MRT (0-t), individual rats No1-No3: 4.445 h and 5.6 h
  MRT (0-∞), individual rats No1-No3: 7.796 h and 11.049 h
  R_AUC (t/∞), Mean: 89.967%
  R_AUC (t/∞), individual rats No1-No3: 94.8% and 90.4% and 84.7%
  VRT (0-t), Mean: 33.805 h^2
  VRT (0-t), individual rats No1-No3: 30.325 h^2 and 31.091 h^2 and 40 h^2
  VRT (0-∞), Mean: 157.741 h^2
  VRT (0-∞), individual rats No1-No3: 73.322 h^2 and 156.114 h^2 and 243.787 h^2
  Vz, individual rats No1-No3: 31260.167 mL/kg and 29744.277 mL/kg
  t1/2z, individual rats No1-No3: 10.592 h and 11.943 h
  λz, individual rats No1-No3: 0.065 h⁻¹ and 0.058 h⁻¹
rat, p.o.
  AUC (0-t), individual rats No1-No3: 858.063 ng·h/mL and 958.688 ng·h/mL
  AUC (0-∞), individual rats No1-No3: 858.682 ng·h/mL and 1001.201 ng·h/mL
  AUMC (0-t), Mean: 5336.656 h*h*ng/mL
  AUMC (0-t), individual rats No1-No3: 5831.875 h*h*ng/mL and 4275.963 h*h*ng/mL and 5902.131 h*h*ng/mL
  AUMC (0-∞), Mean: 5811.834 h*h*ng/mL
  AUMC (0-∞), individual rats No1-No3: 5879.636 h*h*ng/mL and 4292.741 h*h*ng/mL and 7263.126 h*h*ng/mL
  CLz, individual rat No1: 155.9614 mL/min/kg
  C_last, individual rats No1-No3: 0.506 ng/mL and 0.202 ng/mL and 5.305 ng/mL
  Cmax, individual rats No2, No3: 140.1 ng/mL
  MRT (0-t), individual rats No1-No3: 4.983 h and 6.156 h
  MRT (0-∞), individual rats No1-No3: 4.999 h and 7.254 h
  R_AUC (t/∞), Mean: 98.5%
  R_AUC (t/∞), individual rats No1-No3: 99.8% and 99.9% and 95.8%
  VRT (0-t), Mean: 19.306 h^2
  VRT (0-t), individual rats No1-No3: 17.271 h^2 and 15.275 h^2 and 25.371 h^2
  VRT (0-∞), Mean: 29.291 h^2
  VRT (0-∞), individual rats No1-No3: 18.047 h^2 and 15.623 h^2 and 54.204 h^2
  Vz, individual rat No1: 32202.018 mL/kg
  t1/2z, individual rats No1-No3: 2.385 h and 2.122 h and 5.553 h
  λz, individual rats No1-No3: 0.291 h⁻¹ and 0.327 h⁻¹ and 0.125 h⁻¹

From publication PMC9024338, “Bruceine H Mediates EGFR-TKI Drug Persistence in NSCLC by Notch3-Dependent β-Catenin Activating FOXO3a Signaling” (Frontiers in Oncology, 2022)
